Here are results for one compound from publication PMC9981671, “rRNA methylation by Spb1 regulates the GTPase activity of Nog2 during 60S ribosomal subunit assembly” (Nature Communications, 2023).

The target in this experiment is Nog2 (Saccharomyces cerevisiae, UniProt P53742). The experiment can be described thus: cryo-EM structure of native pre-60S particle, […] A. It counts as binding. The following applies: Nog2pre from spb1 D52A strain (unmethylated G2922); GTPase site with Mg2+ and K+; pH 8.0; also Nog2post (7UUI) and Nog2pre from spb1 D52A/E769K strain (7V08).
Nog2, sequence (P53742 whole entry): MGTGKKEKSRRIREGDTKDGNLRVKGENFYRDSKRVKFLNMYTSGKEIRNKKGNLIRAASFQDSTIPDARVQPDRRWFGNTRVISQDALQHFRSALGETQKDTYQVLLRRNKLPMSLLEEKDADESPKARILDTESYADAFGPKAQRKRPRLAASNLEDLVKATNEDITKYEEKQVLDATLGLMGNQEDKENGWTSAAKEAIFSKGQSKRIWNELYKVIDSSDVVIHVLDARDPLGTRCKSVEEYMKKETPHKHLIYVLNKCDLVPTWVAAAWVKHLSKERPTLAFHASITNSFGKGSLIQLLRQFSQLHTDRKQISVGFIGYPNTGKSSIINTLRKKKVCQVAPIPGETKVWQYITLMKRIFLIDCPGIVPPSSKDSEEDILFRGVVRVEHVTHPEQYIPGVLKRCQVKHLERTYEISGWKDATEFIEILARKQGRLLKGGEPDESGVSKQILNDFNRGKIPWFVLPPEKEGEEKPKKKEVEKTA

Turning to `Nc1nc2c(ncn2[C@@H]2O[C@H](COP(=O)(O)OP(=O)(O)O)[C@@H](O)[C@H]2O)c(=O)[nH]1` [GDP], the “cryo-EM structure of native pre-60S particle, 2.4 A” value was “GTP hydrolysis has taken place and that GDP occupies the Nog2 active site”.
